Target: T1, human recombinant PDE5 (Homo sapiens, UniProt O76074)
T1 construct: host or cells: Saccharomyces cerevisiae strain BJ2-54 (ATCC 74465)
Assay: cGMP-PDE inhibition, one-step assay with human recombinant PDE5
Type: biochemical
Conditions: 0.15 μM 8-[H3]-cGMP, 30 min
Experimental: The compounds of structural formula (I) were tested for an ability to inhibit PDE5. The ability of a compound to inhibit PDE5 activity is related to the IC50 value for the compound, i.e., the concentration of inhibitor required for 50% inhibition of enzyme activity. The IC50 value for compounds pounds of structural formula (I) were determined using recombinant human PDE5.
Recombinant production of human PDE1B, PDE2, PDE4A, PDE4B, PDE4C, PDE4D, PDE5, and PDE7 was carried out similarly to that described in Example 7 of U.S. Pat. No. 5,702,936, incorporated herein by reference, except that the yeast transformation vector employed, which is derived from the basic ADH2 plasmid described in Price et al., Methods in Enzymology, 185, pp. 308–318 (1990), incorporated yeast ADH2 promoter and terminator sequences and the Saccharomyces cerevisiae host was the protease-deficient strain BJ2-54 deposited on Aug. 31, 1998 with the American Type Culture Collection, Manassas, Va., under accession number ATCC 74465. Transformed host cells were grown in 2×SC-leu medium, pH 6.2, with trace metals, and vitamins. After 24 hours, YEP medium-containing glycerol was added to a final concentration of 2×YET/3% glycerol. Approxiately 24 hr later, cells were harvested, washed, and stored at −70° C. […]
Cell pellets (29 g) were thawed on ice with an equal volume of Lysis Buffer (25 mM Tris HCl, pH 8, 5 mM MgCl2, 0.25 mM DTT, 1 mM benzamidine, and 10 μM ZnSO4). Cells were lysed in a Microfluidizer® (Microfluidics Corp.) using nitrogen at 20,000 psi. The lysate was centrifuged and filtered through 0.45 μm disposable filters. The filtrate was applied to a 150 mL column of Q SEPHAROSE® Fast-Flow (Pharmacia). The column was washed with 1.5 volumes of Buffer A (20 mM Bis-Tris Propane, pH 6.8, 1 mM MgCl2, 0.25 mM DTT, 10 μM ZnSO4) and eluted with a step gradient of 125 mM NaCl in Buffer A followed by a linear gradient of 125–1000 mM NaCl in Buffer A. Active fractions from the linear gradient were applied to a 180 mL hydroxyapatite column in Buffer B (20 mM Bis-Tris Propane (pH 6.8), 1 mM MgCl2, 0.25 mM DTT, 10 μM ZnSO4, and 250 mM KCl). After loading, the column was washed with 2 volumes of Buffer B and eluted with a linear gradient of 0–125 mM potassium phosphate in Buffer B. Active fractions were pooled, precipitated with 60% ammonium sulfate, and resuspended in Buffer C (20 mM Bis-Tris Propane, pH 6.8, 125 mM NaCl, 0.5 mM DTT, and 10 μM ZnSO4). The pool was applied to a 140 mL column of SEPHACRYL® S-300 HR and eluted with Buffer C. Active fractions were diluted to 50% glycerol and stored at −20° C.
cGMP-PDE activity of compounds of the present invention was measured using a one-step assay adapted from Wells et al., Biochim. Biophys. Acta, 384, 430 (1975). The reaction medium contained 50 mM Tris-HCl, pH 7.5, 5 mM magnesium acetate. 250 μg/ml 5′-Nucleotidase, 1 mM EGTA, and 0.15 μM 8-[H^3]-cGMP. Unless otherwise indicated, the enzyme used was a human recombinant PDE5 (ICOS Corp., Bothell, Wash.).
Compounds of the invention were dissolved in DMSO finally present at 2% in the assay.

SMILES | IC50 [nM]
CNc1ccc(C(=O)N2CCc3c([nH]c4ccccc34)C2c2ccc3c(c2)OCO3)cc1 (stereo not drawn) [Example 5, 1-(1-Benzo[1,3]dioxol-5-yl-1,3,4,9-tetrahydro-β-carbolin-2-yl)-1-(4-methylaminophenyl)methanone] | 200
CN(C)c1ccc(C(=O)N2CCc3c([nH]c4ccccc34)C2c2ccc3c(c2)OCO3)cc1 (stereo not drawn) [Example 6, 1-(1-Benzo[1,3]dioxol-5-yl-1,3,4,9-tetrahydro-β-carbolin-2-yl)-1-(4-dimethylaminophenyl)methanone] | 670
NC(=O)c1ccc(C(=O)N2CCc3c([nH]c4ccccc34)C2c2ccc3c(c2)OCO3)cc1 (stereo not drawn) [Example 7, 4-[1-(1-Benzo[1,3]dioxol-5-yl-1,3,4,9-tetrahydro-β-carbolin-2-yl)methanoyl]benzamide] | 550
O=C(C#Cc1ccccc1)N1CCc2c([nH]c3ccccc23)C1c1ccc2c(c1)OCO2 (stereo not drawn) [Example 8, 1-(1-Benzo[1,3]dioxol-5-yl-1,3,4,9-tetrahydro-β-carbolin-2-yl)-3-phenylpropynone] | 190
Nc1ccccc1CCC(=O)N1CCc2c([nH]c3ccccc23)C1c1ccc2c(c1)OCO2 (stereo not drawn) [Example 9, 3-(2-Aminophenyl)-1-(1-benzo[1,3]dioxol-5-yl-1,3,4,9-tetrahydro-β-carbolin-2-yl)propan-1-one] | 440
O=C(Cc1ccccc1)Nc1ccc(C(=O)N2CCc3c([nH]c4ccccc34)C2c2ccc3c(c2)OCO3)cc1 (stereo not drawn) [Example 10, N-{4-[1-(1-Benzo[1,3]dioxol-5-yl-1,3,4,9-tetrahydro-β-carbolin-2-yl)methanoyl]phenyl}-2-phenylacetamide] | 760
O=C(CCc1ccccc1)N1CCc2c([nH]c3ccccc23)C1c1ccc2c(c1)OCO2 (stereo not drawn) [Example 11, 1-(1-Benzo[1,3]dioxol-5-yl-1,3,4,9-tetrahydro-β-carbolin-2-yl)-3-phenylpropan-1-one] | 440
O=C(/C=C/c1cccc(CCC(=O)N2CCc3c([nH]c4ccccc34)C2c2ccc3c(c2)OCO3)c1)N1CCc2c([nH]c3ccccc23)C1c1ccc2c(c1)OCO2 (centres unmarked) [Example 13a] | 480
O=C(/C=C/c1ccc(CCC(=O)N2CCc3c([nH]c4ccccc34)C2c2ccc3c(c2)OCO3)cc1)N1CCc2c([nH]c3ccccc23)C1c1ccc2c(c1)OCO2 (centres unmarked) [Example 13b] | 20
O=C(c1ccc(-c2cccnc2)s1)N1CCc2c([nH]c3ccccc23)C1c1ccc2c(c1)OCO2 (centres unmarked) [Example 18] | 110
O=C(c1ccc(-c2ccccc2)s1)N1CCc2c([nH]c3ccccc23)C1c1ccc2c(c1)OCO2 (centres unmarked) [Example 19] | 250
COc1ccc(C2c3[nH]c4ccccc4c3CCN2C(=O)c2cc3ccccc3s2)cc1Cl (centres unmarked) [Example 20] | 420
O=C(c1cc2cc([N+](=O)[O-])ccc2s1)N1CCc2c([nH]c3ccccc23)C1c1ccc2c(c1)OCO2 (centres unmarked) [Example 21] | 130
Nc1ccc2sc(C(=O)N3CCc4c([nH]c5ccccc45)C3c3ccc4c(c3)OCO4)cc2c1 (centres unmarked) [Example 22] | 80
O=C(Cc1csc2ccccc12)N1CCc2c([nH]c3ccccc23)C1c1ccc2c(c1)OCO2 (stereo not drawn) [Example 23, 2-Benzo[b]thiophen-3-yl-1-(1-benzo[1,3]dioxol-5-yl-1,3,4,9-tetrahydro-β-carbolin-2-yl)ethanone] | 360
CC(=O)Nc1ccc2sc(C(=O)N3CCc4c([nH]c5ccccc45)C3c3ccc4c(c3)OCO4)cc2c1 (centres unmarked) [Example 24] | 30
O=C(CCl)Nc1ccc2sc(C(=O)N3CCc4c([nH]c5ccccc45)C3c3ccc4c(c3)OCO4)cc2c1 (centres unmarked) [Example 25] | 40
O=C(c1ccsc1)N1CCc2c([nH]c3ccccc23)C1c1ccc2c(c1)OCO2 (centres unmarked) [Example 26] | 900
O=C(CN1CCOCC1)Nc1ccc2sc(C(=O)N3CCc4c([nH]c5ccccc45)C3c3ccc4c(c3)OCO4)cc2c1 (centres unmarked) [Example 27] | 40
CN1CCN(CC(=O)Nc2ccc3sc(C(=O)N4CCc5c([nH]c6ccccc56)C4c4ccc5c(c4)OCO5)cc3c2)CC1 (centres unmarked) [Example 28] | 120
O=C(CN1CCCCC1)Nc1ccc2sc(C(=O)N3CCc4c([nH]c5ccccc45)C3c3ccc4c(c3)OCO4)cc2c1 (centres unmarked) [Example 29] | 300
COC(=O)CC(=O)Nc1ccc2sc(C(=O)N3CCc4c([nH]c5ccccc45)C3c3ccc4c(c3)OCO4)cc2c1 (centres unmarked) [Example 30] | 60

SMILES | IC50 [nM]
O=C(Cn1ccnc1)Nc1ccc2sc(C(=O)N3CCc4c([nH]c5ccccc45)C3c3ccc4c(c3)OCO4)cc2c1 (centres unmarked) [Example 31] | 40
O=C(c1cc2cccc(Br)c2s1)N1CCc2c([nH]c3ccccc23)C1c1ccc2c(c1)OCO2 (centres unmarked) [Example 32] | 480
O=C(c1cc2c([N+](=O)[O-])cccc2s1)N1CCc2c([nH]c3ccccc23)C1c1ccc2c(c1)OCO2 (centres unmarked) [Example 33] | 200
O=C(c1ccc([N+](=O)[O-])s1)N1CCc2c([nH]c3ccccc23)C1c1ccc2c(c1)OCO2 (centres unmarked) [Example 34] | 460
O=C(c1cc2c(Br)cccc2s1)N1CCc2c([nH]c3ccccc23)C1c1ccc2c(c1)OCO2 (centres unmarked) [Example 35] | 410
CC(=O)c1ccc(C(=O)N2CCc3c([nH]c4ccccc34)C2c2ccc3c(c2)OCO3)s1 (centres unmarked) [Example 36] | 110
COc1ccc2cc(C(=O)N3CCc4c([nH]c5ccccc45)C3c3ccc4c(c3)OCO4)sc2c1 (centres unmarked) [Example 37] | 40
COc1ccc2sc(C(=O)N3CCc4c([nH]c5ccccc45)C3c3ccc4c(c3)OCO4)cc2c1 (centres unmarked) [Example 38] | 30
O=C(c1ccc(CN2CCOCC2)s1)N1CCc2c([nH]c3ccccc23)C1c1ccc2c(c1)OCO2 (centres unmarked) [Example 39] | 400
COCc1ccc(C(=O)N2CCc3c([nH]c4ccccc34)C2c2ccc3c(c2)OCO3)s1 (centres unmarked) [Example 40] | 320
CN(C)CC(=O)Nc1ccc(C(=O)N2CCc3c([nH]c4ccccc34)C2c2ccc3c(c2)OCO3)o1 (centres unmarked) [Example 41] | 240
CN(C)Cc1ccc(C(=O)N2CCc3c([nH]c4ccccc34)C2c2ccc3c(c2)OCO3)s1 (centres unmarked) [Example 42] | 850
CN(C)Cc1ccc2sc(C(=O)N3CCc4c([nH]c5ccccc45)C3c3ccc4c(c3)OCO4)cc2c1 (centres unmarked) [Example 43] | 290
Nc1ccc(C(=O)N2CCc3c([nH]c4ccccc34)C2c2ccc3c(c2)OCO3)s1 (centres unmarked) [Example 44] | 490
COc1cc2nc(N3CCc4c([nH]c5ccccc45)C3c3ccc4c(c3)OCO4)[nH]c(=O)c2cc1OC (stereo not drawn) [Example 46, 2-(1-Benzo[1,3]dioxol-5-yl-1,3,4,9-tetrahydro-β-carbolin-2-yl) -6,7-dimethoxy-3H-quinazolin-4-one] | 5
COc1cc2nc(N3CCc4c([nH]c5ccccc45)C3c3ccc4c(c3)OCO4)nc(Cl)c2cc1OC (stereo not drawn) [Example 47a, 1-Benzo[1,3]dioxol-5-yl-2-(4-chloro-6,7-dimethoxyquinazolin-2-yl)-2,3,4,9-tetrahydro-1H-β-carboline] | 27
COc1cc2cnc(N3CCc4c([nH]c5ccccc45)C3c3ccc4c(c3)OCO4)nc2cc1OC (stereo not drawn) [Example 47b, 1-Benzo[1,3]dioxol-5-yl-2-(6,7-dimethoxyquinazolin-2-yl)-2,3,4,9-tetrahydro-1H-β-carboline] | 5
O=C(O)CC(=O)Nc1ccc2sc(N3CCc4c([nH]c5ccccc45)C3c3ccc4c(c3)OCO4)cc2c1 (centres unmarked) [Example 48] | 20
COc1ccc(-c2ccnc(N3CCc4c([nH]c5ccccc45)C3c3ccc4c(c3)OCO4)n2)cc1 (centres unmarked) [Example 49] | 10
c1cnc(N2CCc3c([nH]c4ccccc34)C2c2ccc3c(c2)OCO3)nc1 (centres unmarked) [Example 50] | 780
c1ccc(-c2ccnc(N3CCc4c([nH]c5ccccc45)C3c3ccc4c(c3)OCO4)n2)cc1 (centres unmarked) [Example 51] | 30
c1ccc(-c2ccnc(N3CCc4c([nH]c5ccccc45)C3c3ccccc3)n2)cc1 (centres unmarked) [Example 52] | 290
